# Data taken from PubChem BioAssay AID270 (DTP/NCI, 2004).
# Where “and” joins values, the source holds several entries; their conditions need not be identical. Equal values may be shown once. Results filed as inconclusive are left out.
# Tested on: BDF1 mice, s.c. Lewis lung carcinoma, T/C %
# Test: NCI In Vivo Anticancer Drug Screen. Data for tumor model Lewis Lung Carcinoma (subcutaneous) in B6D2F1 (BDF1) mice
# Procedure, shortened: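 Antitumor effect in vivo is scored from survival or tumor burden, reported as treated relative to vehicle controls.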
# [1] = endpoint: median survival time, dose: 1.0 mg/kg/injection, schedule: Q01DX009 (ip), vehicle: Klucel (hydroxypropylcellulose) (HPC), higher = longer survival
# [2] = endpoint: median survival time, dose: 0.25 mg/kg/injection, schedule: Q01DX009 (ip), vehicle: saline, higher = longer survival
# [3] = endpoint: median survival time, dose: 1.0 mg/kg/injection, schedule: Q01DX009 (ip), vehicle: saline, higher = longer survival
# [4] = endpoint: median survival time, dose: 0.5 mg/kg/injection, schedule: Q01DX009 (ip), vehicle: saline, higher = longer survival
smiles,measurement,setting,value
CCC[CH2][Sn]1([CH2]CCC)[O]OC(c2ccc(C)cc2)[O]1 (centres undefined),T/C,"endpoint: median survival time, dose: 0.19 mg/kg/injection, schedule: Q01DX009 (ip), vehicle: saline with Tween-80, higher = longer survival",98 % of control
same,T/C,"endpoint: median survival time, dose: 0.75 mg/kg/injection, schedule: Q01DX009 (ip), vehicle: saline with Tween-80, higher = longer survival",107 % of control
same,T/C,"endpoint: median survival time, dose: 1.5 mg/kg/injection, schedule: Q01DX009 (ip), vehicle: saline with Tween-80, higher = longer survival",98 % of control
same,T/C,"endpoint: median survival time, dose: 3.0 mg/kg/injection, schedule: Q01DX009 (ip), vehicle: saline with Tween-80, higher = longer survival",119 % of control
same,T/C,"endpoint: median survival time, dose: 3.13 mg/kg/injection, schedule: Q01DX009 (ip), vehicle: saline with Tween-80, higher = longer survival",121 % of control
CC[C@@]1(O)C(=O)OCc2c1cc1n(c2=O)Cc2cc3c(OC)cccc3nc2-1,T/C,"endpoint: median survival time, dose: 0.12 mg/kg/injection, schedule: Q01DX009 (ip), vehicle: Klucel (hydroxypropylcellulose) (HPC), higher = longer survival",119 % of control
same,T/C,"endpoint: median survival time, dose: 0.25 mg/kg/injection, schedule: Q01DX009 (ip), vehicle: Klucel (hydroxypropylcellulose) (HPC), higher = longer survival",197 % of control
same,T/C,"endpoint: median survival time, dose: 0.51 mg/kg/injection, schedule: Q01DX009 (ip), vehicle: Klucel (hydroxypropylcellulose) (HPC), higher = longer survival",198 % of control
same,T/C,[1],198 % of control
COC(=O)c1nc(-c2ccc3c(n2)C(=O)C(N)=C(OC)C3=O)c(N)c(-c2ccc(OC)c(OC)c2O)c1C,T/C,"endpoint: mean tumor weight, dose: 0.25 mg/kg/injection, schedule: Q01DX011 (ip), vehicle: other, higher = larger tumour",65 % of control
same,T/C,"endpoint: mean tumor weight, dose: 0.5 mg/kg/injection, schedule: Q01DX011 (ip), vehicle: other, higher = larger tumour",70 % of control
same,T/C,"endpoint: mean tumor weight, dose: 1.0 mg/kg/injection, schedule: Q01DX011 (ip), vehicle: other, higher = larger tumour",45 % of control
CCCCCCCCCCCC[N+](C)(C)Cc1ccccc1,T/C,"endpoint: median survival time, dose: 0.12 mg/kg/injection, schedule: Q01DX009 (ip), vehicle: saline, higher = longer survival",111 % of control
same,T/C,[2],94 % of control
same,T/C,[3],97 % of control
same,T/C,"endpoint: median survival time, dose: 2.0 mg/kg/injection, schedule: Q01DX009 (ip), vehicle: saline, higher = longer survival",97 % of control
same,T/C,"endpoint: median survival time, dose: 4.0 mg/kg/injection, schedule: Q01DX009 (ip), vehicle: saline, higher = longer survival",91 % of control
same,T/C,"endpoint: median survival time, dose: 125.0 micrograms/kg/injection, schedule: Q01DX009 (ip), vehicle: saline, higher = longer survival",107 % of control
same,T/C,"endpoint: median survival time, dose: 250.0 micrograms/kg/injection, schedule: Q01DX009 (ip), vehicle: saline, higher = longer survival",93 % of control
same,T/C,"endpoint: median survival time, dose: 1000.0 micrograms/kg/injection, schedule: Q01DX009 (ip), vehicle: saline, higher = longer survival",103 % of control
same,T/C,"endpoint: median survival time, dose: 2000.0 micrograms/kg/injection, schedule: Q01DX009 (ip), vehicle: saline, higher = longer survival",109 % of control
same,T/C,"endpoint: median survival time, dose: 4000.0 micrograms/kg/injection, schedule: Q01DX009 (ip), vehicle: saline, higher = longer survival",107 % of control
same,T/C,"endpoint: median survival time, dose: 8000.0 micrograms/kg/injection, schedule: Q01DX009 (ip), vehicle: saline, higher = longer survival",96 % of control
C[CH2][Pb]([CH2]C)([CH2]C)[O]C(=O)COC,T/C,"endpoint: median survival time, dose: 1.56 mg/kg/injection, schedule: Q01DX009 (ip), vehicle: Klucel (hydroxypropylcellulose) (HPC), higher = longer survival",92 % of control
same,T/C,"endpoint: median survival time, dose: 3.13 mg/kg/injection, schedule: Q01DX009 (ip), vehicle: Klucel (hydroxypropylcellulose) (HPC), higher = longer survival",96 % of control
CC(C)(C)C1CCC(NC(=O)N(CCCl)N=O)CC1 (centres undefined),T/C,"endpoint: median survival time, dose: 140.0 mg/kg/injection, schedule: Q01DX001 (ip), vehicle: gum acacia, higher = longer survival",118 % of control
same,T/C,"endpoint: median survival time, dose: 315.0 mg/kg/injection, schedule: Q01DX001 (ip), vehicle: gum acacia, higher = longer survival",121 % of control
CC(CN1CC(=O)NC(=O)C1)N1CC(=O)NC(=O)C1 (centres undefined),T/C,[4],91 % of control
same,T/C,[3],109 % of control
same,T/C,"endpoint: median survival time, dose: 1.9 mg/kg/injection, schedule: Q01DX009 (ip), vehicle: saline, higher = longer survival",112 % of control
same,T/C,"endpoint: median survival time, dose: 3.75 mg/kg/injection, schedule: Q01DX009 (ip), vehicle: saline, higher = longer survival",106 % of control
same,T/C,"endpoint: median survival time, dose: 7.5 mg/kg/injection, schedule: Q01DX009 (ip), vehicle: saline, higher = longer survival",108 % of control
same,T/C,"endpoint: median survival time, dose: 15.0 mg/kg/injection, schedule: Q01DX009 (ip), vehicle: Klucel (hydroxypropylcellulose) (HPC), higher = longer survival",112 % of control
same,T/C,"endpoint: median survival time, dose: 30.0 mg/kg/injection, schedule: Q01DX009 (ip), vehicle: Klucel (hydroxypropylcellulose) (HPC), higher = longer survival",86 % of control
same,T/C,"endpoint: median survival time, dose: 60.0 mg/kg/injection, schedule: Q01DX009 (ip), vehicle: Klucel (hydroxypropylcellulose) (HPC), higher = longer survival",116 % of control
same,T/C,"endpoint: median tumor weight (est.), dose: 13.0 mg/kg/injection, schedule: Q01DX011 (ip), vehicle: saline, higher = larger tumour",57 % of control and 74 % of control
same,T/C,"endpoint: median tumor weight (est.), dose: 20.0 mg/kg/injection, schedule: Q01DX011 (ip), vehicle: saline, higher = larger tumour",58 % of control and 79 % of control
same,T/C,"endpoint: median tumor weight (est.), dose: 30.0 mg/kg/injection, schedule: Q01DX011 (ip), vehicle: saline, higher = larger tumour",68 % of control
COc1cc2c3c(c1)/C(=N\Nc1ccccc1)CCN3CCC2,T/C,"endpoint: median survival time, dose: 0.78 mg/kg/injection, schedule: Q01DX009 (ip), vehicle: DMSO, higher = longer survival",112 % of control
same,T/C,"endpoint: median survival time, dose: 3.0 mg/kg/injection, schedule: Q01DX009 (ip), vehicle: DMSO, higher = longer survival",124 % of control
O=C1c2c(O)ccc(O)c2C(=O)c2c(NCCNCCO)ccc(NCCNCCO)c21,T/C,"endpoint: median survival time, dose: 0.25 mg/kg/injection, schedule: Q01DX009 (ip), vehicle: acid diluted with saline, higher = longer survival",88 % of control
same,T/C,"endpoint: median survival time, dose: 0.5 mg/kg/injection, schedule: Q01DX009 (ip), vehicle: acid diluted with saline, higher = longer survival",95 % of control
same,T/C,"endpoint: median survival time, dose: 0.5 mg/kg/injection, schedule: Q01DX009 (ip), vehicle: saline with Tween-80, higher = longer survival",86 % of control and 106 % of control and 114 % of control
same,T/C,"endpoint: median survival time, dose: 1.0 mg/kg/injection, schedule: Q01DX009 (ip), vehicle: acid diluted with saline, higher = longer survival",102 % of control
same,T/C,"endpoint: median survival time, dose: 1.0 mg/kg/injection, schedule: Q01DX009 (ip), vehicle: saline with Tween-80, higher = longer survival",104 % of control and 105 % of control and 106 % of control
same,T/C,"endpoint: median survival time, dose: 1.0 mg/kg/injection, schedule: Q## X004 (ip), vehicle: acid diluted with saline, higher = longer survival",89 % of control
same,T/C,"endpoint: median survival time, dose: 2.0 mg/kg/injection, schedule: Q01DX009 (ip), vehicle: saline with Tween-80, higher = longer survival",95 % of control
same,T/C,"endpoint: median survival time, dose: 2.0 mg/kg/injection, schedule: Q## X004 (ip), vehicle: acid diluted with saline, higher = longer survival",89 % of control
same,T/C,"endpoint: median survival time, dose: 4.0 mg/kg/injection, schedule: Q## X004 (ip), vehicle: acid diluted with saline, higher = longer survival",101 % of control
CO[C@H]1Nc2c(ccc(C)c2O)C(=O)N2C=C(/C=C/C(N)=O)C[C@@H]12,T/C,"endpoint: median survival time, dose: 0.03 mg/kg/injection, schedule: Q04DX003 (ip), vehicle: saline with Tween-80, higher = longer survival",92 % of control
same,T/C,"endpoint: median survival time, dose: 0.04 mg/kg/injection, schedule: Q04DX003 (ip), vehicle: saline with Tween-80, higher = longer survival",103 % of control
same,T/C,"endpoint: median survival time, dose: 0.06 mg/kg/injection, schedule: Q04DX003 (ip), vehicle: saline with Tween-80, higher = longer survival",89 % of control and 98 % of control
same,T/C,"endpoint: median survival time, dose: 0.13 mg/kg/injection, schedule: Q04DX003 (ip), vehicle: saline with Tween-80, higher = longer survival",98 % of control
same,T/C,"endpoint: median survival time, dose: 0.25 mg/kg/injection, schedule: Q04DX003 (ip), vehicle: saline with Tween-80, higher = longer survival",99 % of control
same,T/C,"endpoint: median survival time, dose: 50.0 micrograms/kg/injection, schedule: Q04DX003 (ip), vehicle: saline + alcohol, higher = longer survival",107 % of control
same,T/C,"endpoint: median survival time, dose: 100.0 micrograms/kg/injection, schedule: Q04DX003 (ip), vehicle: saline + alcohol, higher = longer survival",106 % of control
same,T/C,"endpoint: median survival time, dose: 200.0 micrograms/kg/injection, schedule: Q04DX003 (ip), vehicle: saline + alcohol, higher = longer survival",97 % of control
COC(C(=O)C(O)C(C)O)C1Cc2cc3cc(OC4CC(OC5CC(O)C(O)C(C)O5)C(O)C(C)O4)c(C)c(O)c3c(O)c2C(=O)C1OC1CC(OC2CC(O)C(OC3CC(C)(O)C(O)C(C)O3)C(C)O2)C(O)C(C)O1 (centres undefined),T/C,"endpoint: median survival time, dose: 0.06 mg/kg/injection, schedule: Q01DX009 (ip), vehicle: saline, higher = longer survival",93 % of control
same,T/C,"endpoint: median survival time, dose: 0.13 mg/kg/injection, schedule: Q01DX009 (ip), vehicle: saline, higher = longer survival",93 % of control and 123 % of control
same,T/C,[2],96 % of control
same,T/C,[4],94 % of control
NC(=O)c1csc(C2OC(CO)C(O)C2O)n1 (centres undefined),T/C,"endpoint: median survival time, dose: 18.75 mg/kg/injection, schedule: Q01DX009 (ip), vehicle: water, higher = longer survival",190 % of control and 235 % of control
same,T/C,"endpoint: median survival time, dose: 37.5 mg/kg/injection, schedule: Q01DX009 (ip), vehicle: water, higher = longer survival",190 % of control and 235 % of control
same,T/C,"endpoint: median survival time, dose: 75.0 mg/kg/injection, schedule: Q01DX009 (ip), vehicle: water, higher = longer survival",190 % of control and 235 % of control
same,T/C,"endpoint: median survival time, dose: 150.0 mg/kg/injection, schedule: Q01DX009 (ip), vehicle: water, higher = longer survival",190 % of control and 235 % of control
same,T/C,"endpoint: median survival time, dose: 300.0 mg/kg/injection, schedule: Q01DX009 (ip), vehicle: water, higher = longer survival",190 % of control and 235 % of control
same,T/C,"endpoint: median survival time, dose: 600.0 mg/kg/injection, schedule: Q01DX009 (ip), vehicle: water, higher = longer survival",190 % of control and 235 % of control
NC(Cc1cc([N+](=O)[O-])ccc1CN(CCCl)CCCl)C(=O)O (centres undefined),T/C,[1],110 % of control
same,T/C,"endpoint: median survival time, dose: 2.0 mg/kg/injection, schedule: Q01DX009 (ip), vehicle: Klucel (hydroxypropylcellulose) (HPC), higher = longer survival",116 % of control
same,T/C,"endpoint: median survival time, dose: 3.12 mg/kg/injection, schedule: Q01DX001 (ip), vehicle: Klucel (hydroxypropylcellulose) (HPC), higher = longer survival",107 % of control
same,T/C,"endpoint: median survival time, dose: 6.25 mg/kg/injection, schedule: Q01DX001 (ip), vehicle: Klucel (hydroxypropylcellulose) (HPC), higher = longer survival",104 % of control
same,T/C,"endpoint: median survival time, dose: 12.5 mg/kg/injection, schedule: Q01DX001 (ip), vehicle: Klucel (hydroxypropylcellulose) (HPC), higher = longer survival",103 % of control
O=C1NC2C(NC(=O)N2Cl)N1Cl (centres undefined),T/C,"endpoint: mean tumor weight, dose: 20.0 mg/kg/injection, schedule: Q01DX011 (ip), vehicle: saline, higher = larger tumour",97 % of control
same,T/C,"endpoint: mean tumor weight, dose: 40.0 mg/kg/injection, schedule: Q01DX011 (ip), vehicle: saline, higher = larger tumour",114 % of control
